The values below come from US5821232A, “Synergistic therapeutic compositions and methods” (Pfizer Inc., priority 1995, dated 1998).

The test system of assay [1] is Male Hartley guinea pigs. The assay is described as follows: Mean arterial pressure lowering in conscious sodium-depleted guinea pigs, i.v. dosing. The settings on record: trapezoidal method. More on the design: unit not given beside the values. It counts as in vivo, guinea pig. On the procedure: Male Hartley guinea pigs weighing between 250 and 300 g were obtained from Charles River Laboratories, Lakeview, New Jersey. The guinea pigs were allowed to acclimate to their environment for at least two weeks. Then, they were placed on a low sodium diet (Purina Modified Guinea Pig Chow, no sodium added) for 14 days and were given injections of furosemide (Lasix® 2 mg/kg, i.m.) on three non-consecutive days. At least 24 hours prior to experimentation, the animals were anesthetized with xylazine (Rompune, 10 mg/kg, s.c.) and ketamine (Vetalar®, 80 mg/kg, i.m.) and, using aseptic technique, cannulae (PE-50) were implanted into the aorta via the right carotid artery for direct measurement of mean arterial pressure (MAP). Cannulae (PE-50) were also placed into the left jugular vein for intravenous compound administration. Both catheters were exteriorized at the intrascapular region of the animal's back and flushed with a heparinized dextrose solution. To prevent the formation of clots, each cannula was filled with heparin at a concentration of 1000 units/ml. After surgery, an antibacterial, trimethoprim/sulfamethoxazole (Di-Trim®, 30 mg/kg, s.c.), was given to the animals. The animals were allowed to recover with water and no-sodium chow administered ad libitum. On the day of the experiment, each guinea pig was given an additional injection of furosemide (6 mg/kg, i.m.) to accelerate sodium loss and was placed in a sound-proof, ventilated box with one-way glass for observation. Mean arterial pressure was monitored with a Statham 23DB strain gauge pressure transducer previously calibrated using a mercury manometer. The arterial pressure waveform and derived heart rate were continuously recorded on a Grass Model 7D oscillograph. Arterial pressure waveform samples were obtained approximately every 20 seconds using an IBM PS/2 model 30 computer equipped with a custom algorithm designed to calculate mean arterial pressure from the integrated waveform. Values were obtained for a period of at least one hour prior to and 2 hours (usually 4 hours) after dosing. The test compounds were infused intravenously followed by a 250 μl flush with heparinized dextrose solution.
Dose response curves for the renin inhibitor (RI) (0.3 to 3.0 mg/kg, i.v.) and captopril (0.03 to 1.0 mg/kg, i.v.) were obtained (n =4 to 8) in order to quantitate baseline responses to each drug. In experiments where the renin inhibitor and captopril were co-administered, the renin inhibitor was given first immediately followed by captopril. Doses of renin inhibitor and angiotensin converting enzyme inhibitor, when given together, were chosen on the basis of causing submaximal hypotensive effects. Therefore, the contributory effect of each drug could be quantitated by integration and compared to the expected effect to determine whether additive or synergistic responses had occurred.
Employing the procedure described above, the changes in mean arterial pressure (AMAP) for the renin inhibitor (RI), the ACE inhibitor (captopril) and the renin inhibitor (RI), plus the ACE inhibitor (captopril) were obtained for various doses and are shown in Table I, below. The AOC-MAP is the area over the dose response curve for each dose calculated using the trapezoidal method.
The data in Table I were obtained by averaging the A MAP of all animals for each dose prior to calculating the AOC-MAP. When the data contained in Table I was reviewed for the purpose of calculating the AOC-MAP by averaging the area over the dose response curve for each animal per dose, it was discovered that the AOC-MAP for 0.5 mg/kg RI plus 0.05 mg/kg captopril inadvertently reflected the data based on only three of the six subject test animals. Shown below in Table II are the AOC-MAP data for the experiments reported in Table I, which data is now the result of determining the area over the dose response curve for each animal per dose and averaging the AOC-MAP, as well as determining the standard deviation. […]

The conditions of assay [2]: Oldham et al., J. Cardiovasc. Pharmacol. 6: 672-677 (1984); cited from earlier work.
Setting [3] is: Table I, 0.3 mg/kg i.v., area over curve from MAP change averaged over all animals per dose.
[4] abbreviates: Table I, 1.0 mg/kg i.v., area over curve from MAP change averaged over all animals per dose.
Setting [5] is: Table II, 0.3 mg/kg i.v., average of area per animal (± standard deviation).
Where [6] appears, read: Table II, 1.0 mg/kg i.v., average of area per animal (± standard deviation).
Where [7] appears, read: Table III, 0.3 mg/kg i.v., average of area per animal.
The mark [8] stands for this setting: Table III, 1.0 mg/kg i.v., average of area per animal.

In the case of `C[C@H](CS)C(=O)N1CCC[C@H]1C(=O)O` [captopril], the AOC-MAP in assay [1] (Table I, 0.03 mg/kg i.v., area over curve from MAP change averaged over all animals per dose) is -99; in assay [1] (Table I, 0.10 mg/kg i.v., area over curve from MAP change averaged over all animals per dose), -289; in assay [1] (setting [3]) it was -1263; in assay [1] (setting [4]), -3272; in assay [1] (Table II, 0.03 mg/kg i.v., average of area per animal (± standard deviation)), -96 (±16); in assay [1] (Table II, 0.10 mg/kg i.v., average of area per animal (± standard deviation)), -283 (±24). In addition, the AOC-MAP is given as -1036 (±145) in assay [1] (setting [5]); -3272 (±350) in assay [1] (setting [6]); -96 (±16) in assay [1] (Table III, 0.03 mg/kg i.v., average of area per animal); -269 (±18) in assay [1] (Table III, 0.10 mg/kg i.v., average of area per animal); -826 (±128) in assay [1] (setting [7]); -3272 (±350) in assay [1] (setting [8]). For the same compound, the “hypotensive effect of captopril injection during H77 infusion” value in assay [2] is listed as “small additional hypotensive effect”.

For `CCCCc1nc(Cl)c(CO)n1Cc1ccc(-c2ccccc2-c2nn[nH]n2)cc1` [Dup 753], the AOC-MAP is -125 (±31) in assay [1] (setting [7]); -549 (±96) in assay [1] (setting [8]); -1575 (±281) in assay [1] (Table III, 3.0 mg/kg i.v., average of area per animal).

Regarding “[alpha-R[alpha-R*, beta-S*(S*,S*)]-alpha-hydroxy-beta-[[2-[[2 -(4-morpholin-1-carboxamido)-1-oxo-3 -phenylpropyllaminol-3 -methylthio-l-oxo-propyl]amino]-cyclohexanebutanoic acid, isopropyl ester [RI]”, the AOC-MAP is -256 in assay [1] (setting [3]); -496 in assay [1] (setting [4]); -1829 in assay [1] (Table I, 3.0 mg/kg i.v., area over curve from MAP change averaged over all animals per dose); -310 (±47) in assay [1] (setting [5]); -568 (±158) in assay [1] (setting [6]); -1990 (±408) in assay [1] (Table II, 3.0 mg/kg i.v., average of area per animal (± standard deviation)).
